{"source": "paper PMC9304322", "about": "“Targeting retinoic acid receptor alpha-corepressor interaction activates chaperone-mediated autophagy and protects against retinal degeneration” (Nature Communications, 2022)", "experiment": "Pharmacokinetic analysis, plasma and brain;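 as to Fig. 3a level, MEAN: plasma concentration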;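 as to Fig. 3a level, single animals 1-3: plasma concentration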;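 as to Fig. 3b level, MEAN: brain concentration in ng/g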;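 as to Fig. 3b level, single animals 1-3: brain concentration in ng/g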", "type": "in vivo, ICR (CD-1) male mice", "set-up": "Fig. 3a level, single animals 1-3 / Fig. 3a level, MEAN / Fig. 3b level, single animals 1-3 / Fig. 3b level, MEAN: unit not given here", "conditions": "for B/P, Brian/Plasma: P.O., individual animals", "description": "ICR (CD-1) male mice were fasted at least three hours and water was available ad libitum before the study. Animals were housed in a controlled environment, target conditions: temperature 18 to 29 °C, relative humidity 30 to 70%. Temperature and relative humidity was monitored daily. An electronic time-controlled lighting system was used to provide a 12 h light/12 h dark cycle. 3 mice for each indicated time point were administered 30 mg/Kg CA39 or CA77 by oral gavage or 1 mg/Kg CA39 or CA77 by intravenous injection using 30% PEG-400, 65% D5W (5% dextrose in water), 5% Tween-80 vehicle. Mice were sacrificed, and brain samples were harvested at […], 0.25 h, 0.5 h, 1 h, 2 h, 4 h, 8 h, 24 h, and analyzed for CA39 or CA77 levels using LC-MS/MS. Pharmacokinetics parameters were calculated using Phoenix WinNonlin 6.3. Experiments performed at SIMM-SERVIER joint Biopharmacy Laboratory.", "note": "Several values for one entry are separate records, joined by “and”; a condition that tells them apart may be missing. Equal entries are not always repeated."}
{"smiles": "CC(=O)Nc1ccc(C2=Nc3ccc(Cl)cc3OC2)cc1", "note": "[CA77]", "values": [{"measurement": "Fig. 3a level, MEAN", "setting": "IV, Time 0.25 h", "value": 30.2}, {"measurement": "Fig. 3a level, single animals 1-3", "setting": "IV, Time 0.25 h", "value": "27.2 and 43.9 and 19.5"}, {"measurement": "Fig. 3b level, MEAN", "setting": "IV, Time 0.25 h", "value": 3653.67}, {"measurement": "Fig. 3b level, single animals 1-3", "setting": "IV, Time 0.25 h", "value": "3391 and 5173 and 2397"}, {"measurement": "Fig. 3a level, MEAN", "setting": "IV, Time 0.5 h", "value": 17.9}, {"measurement": "Fig. 3a level, single animals 1-3", "setting": "IV, Time 0.5 h", "value": "17.2 and 14.6 and 21.9"}, {"measurement": "Fig. 3b level, MEAN", "setting": "IV, Time 0.5 h", "value": 2647.67}, {"measurement": "Fig. 3b level, single animals 1-3", "setting": "IV, Time 0.5 h", "value": "2198 and 2795 and 2950"}, {"measurement": "Fig. 3a level, MEAN", "setting": "IV, Time 1 h", "value": 17.4333}, {"measurement": "Fig. 3a level, single animals 1-3", "setting": "IV, Time 1 h", "value": "15.5 and 21.5 and 15.3"}, {"measurement": "Fig. 3b level, MEAN", "setting": "IV, Time 1 h", "value": 2521.11}, {"measurement": "Fig. 3b level, single animals 1-3", "setting": "IV, Time 1 h", "value": "2758.39 and 2650.88 and 2154.07"}, {"measurement": "Fig. 3a level, MEAN", "setting": "IV, Time 2 h", "value": 4.363}, {"measurement": "Fig. 3a level, single animals 1-3", "setting": "IV, Time 2 h", "value": "7.54 and 1.71 and 3.84"}, {"measurement": "Fig. 3b level, MEAN", "setting": "IV, Time 2 h", "value": 658.667}, {"measurement": "Fig. 3b level, single animals 1-3", "setting": "IV, Time 2 h", "value": "773 and 411 and 792"}, {"measurement": "Fig. 3a level, MEAN", "setting": "IV, Time 4 h", "value": 0.3767}, {"measurement": "Fig. 3a level, single animals 1-3", "setting": "IV, Time 4 h", "value": "BLQ and 0.597 and 0.533"}, {"measurement": "Fig. 3b level, MEAN", "setting": "IV, Time 4 h", "value": 104}, {"measurement": "Fig. 3b level, single animals 1-3", "setting": "IV, Time 4 h", "value": "76 and 112 and 124"}, {"measurement": "Fig. 3a level, MEAN", "setting": "IV, Time 8 h", "value": 0}, {"measurement": "Fig. 3a level, single animals 1-3", "setting": "IV, Time 8 h", "value": "BLQ"}, {"measurement": "Fig. 3b level, MEAN", "setting": "IV, Time 8 h", "value": 25.5467}, {"measurement": "Fig. 3b level, single animals 1-3", "setting": "IV, Time 8 h", "value": "7.74 and 27.5 and 41.4"}, {"measurement": "Fig. 3a level, MEAN", "setting": "IV, Time 24 h", "value": 0}, {"measurement": "Fig. 3a level, single animals 1-3", "setting": "IV, Time 24 h", "value": "BLQ"}, {"measurement": "Fig. 3b level, MEAN", "setting": "IV, Time 24 h", "value": 3}, {"measurement": "Fig. 3b level, single animals 1-3", "setting": "IV, Time 24 h", "value": "2.68 and 4.25 and 2.07"}, {"measurement": "B/P, Brian/Plasma", "setting": "Time 0.25 h", "value": "60.8033 and 75.265"}, {"measurement": "B/P, Brian/Plasma", "setting": "Time 0.5 h", "value": "154.065 and 93.9339"}, {"measurement": "B/P, Brian/Plasma", "setting": "Time 1 h", "value": "105.807 and 124.313"}, {"measurement": "B/P, Brian/Plasma", "setting": "Time 2 h", "value": "113.451 and 103.8"}, {"measurement": "B/P, Brian/Plasma", "setting": "Time 4 h", "value": "108.623 and 135.516"}, {"measurement": "B/P, Brian/Plasma", "setting": "Time 8 h", "value": "133.365 and 145.604"}, {"measurement": "Fig. 3b level, MEAN", "setting": "PO, Time 0.25 h", "value": 9743}, {"measurement": "Fig. 3b level, single animals 1-3", "setting": "PO, Time 0.25 h", "value": "7893 and 7279 and 14057"}, {"measurement": "Fig. 3b level, MEAN", "setting": "PO, Time 0.5 h", "value": 16210.7}, {"measurement": "Fig. 3b level, single animals 1-3", "setting": "PO, Time 0.5 h", "value": "13095 and 20145 and 15392"}, {"measurement": "Fig. 3b level, MEAN", "setting": "PO, Time 1 h", "value": 30964}, {"measurement": "Fig. 3b level, single animals 1-3", "setting": "PO, Time 1 h", "value": "31243 and 27952 and 33697"}, {"measurement": "Fig. 3a level, MEAN", "setting": "PO, Time 2 h", "value": 278}, {"measurement": "Fig. 3a level, single animals 1-3", "setting": "PO, Time 2 h", "value": "318 and 259 and 257"}, {"measurement": "Fig. 3b level, MEAN", "setting": "PO, Time 2 h", "value": 29203.3}, {"measurement": "Fig. 3b level, single animals 1-3", "setting": "PO, Time 2 h", "value": "31592 and 29359 and 26659"}, {"measurement": "Fig. 3a level, MEAN", "setting": "PO, Time 4 h", "value": 203.667}, {"measurement": "Fig. 3a level, single animals 1-3", "setting": "PO, Time 4 h", "value": "163 and 258 and 190"}]}
